From US20220401414A1, “TREATMENT AND PREVENTION OF A NEURODEGENERATIVE DISORDER” (Inflazome Limited, priority 2019, published 2022)

Tested on: PFF-Synuclein model of Parkinson's disease
Assay: Study H: LC-MS/MS quantification of striatal dopamine and metabolites in the PFF-Synuclein mouse model
Assay type: in vivo, C57BL6 mice
Settings: ipsilateral striatum, 12 months
Source text: To determine the oral efficacy of the compound of formula (I) in a chronic progressive model of Parkinson's disease (PD), the preformed fibrils (PFF) mouse model, using a prophylactic and therapeutic dosing schedule.
8-week-old C57BL6 male mice (obtained from ARC, Perth, Australia) were housed under a 12-h light cycle in a SPF climate-controlled facility with food and water provided ad libitum for two weeks prior to study initiation. The compound of formula (I) (or water alone for control animals) was administrated to mice in drinking water at 0.3 mg/ml. Animals were separated into the groups described in Table 9, with ten animals initiated in each cohort. For prophylactic dosing, treatment commenced one day prior to PFF-Synuclein injection. For therapeutic dosing, treatment commenced 4 months after disease induction with PFF-Synuclein.
Recombinant human a-synuclein was obtained from rPeptide Inc., and in vitro fibril generation was performed with a final concentration of 2 mg/ml in phosphate-buffered saline (PBS) by incubation at 37° C. with agitation in an orbital mixer (400 rpm) for 7 days with daily cycles of sonication used to break down fibrillar aggregates as outlined in previously published reports (see Luk et al., Science, 2012, vol. 338(6109), pp. 949-53; and Zhang et al., Methods Mol. Biol., 2019, vol. 1948, pp. 45-57, which are incorporated in their entirety herein by reference). The generation of fibrillar α-synuclein species was confirmed by transmission electron microscopy and Thioflavin T fluorescence prior to use.
. The lesion was performed using a 5 μl Hamilton syringe to deliver either vehicle or human PFF-Synuclein (8 μg) at the following coordinates relative to bregma: AP: +0.5 mm; ML: −2.0 mm; DV: −3.0 mm into the right dorsal striatum according to the stereotaxic atlas (“The mouse brain in stereotaxic coordinates” by Paxinos and Franklin, 1997). After drilling a 1 mm burr-hole in the skull, a 2 μl volume of solution was infused at the target site at the rate of 0.2 μl per minute. The needle was held in place for at least 5 minutes after injection to minimize retrograde flow along the needle tract. […]
At 12 months mice were sacrificed and striatal tissue was micro-dissected, weighed and snap-frozen at −80° C. […] Striatal dopamine (DA) and its metabolites (DOPAC and HVA) were quantified in their stable derivative form in the presence of internal standard 3,4-dihydroxybenzylamine (DHBA) using highly sensitive liquid chromatography-tandem mass spectrometry (LC-MS/MS) as described previously (Park et al., Biol. Pharm. Bull., 2013, vol. 36(2), pp. 252-8). […] For quantitation, one transition per analyte was monitored and two transitions per analyte were monitored for qualitative purposes.

[1] = prophylactic and therapeutic treated mice

CC(C)n1ccc(S(=O)(=O)NC(=O)Nc2c3c(cc4c2CCC4)CCC3)n1 [compound of formula (I)]
striatal DOPAC compared to the untreated PFF mice [1]: significantly higher | striatal HVA compared to the untreated PFF mice [1]: significantly higher | striatal dopamine concentrations compared with untreated PFF-syn mice (prophylactic, P<0.02): significantly higher striatal dopamine concentrations | striatal dopamine concentrations compared with untreated PFF-syn mice (therapeutic, P<0.05): significantly higher striatal dopamine concentrations
